Key:
[1] = molecular target: Protein-tyrosine kinase 6 (Homo sapiens) (UniProt Q13882); experiment: Inhibition of recombinant full length human BRK assessed as residual activity at 1 uM using poly(Glu, Tyr) 4:1 as substrate incubated for 40 mins in presence of [gamma-33ATP] by scintillation counting based radiometry assay relative to control
[2] = molecular target: Calcium/calmodulin-dependent protein kinase type 1 (Homo sapiens) (UniProt Q14012); experiment: Inhibition of recombinant human CaMKIalpha (2 to end residues) assessed as residual activity at 1 uM […] incubated for 40 mins in presence of [gamma-33ATP] by scintillation counting based radiometry assay relative to control
[3] = molecular target: CDK7/Cyclin H/MNAT1 (Homo sapiens) (UniProt P51946+P50613+P51948); experiment: Inhibition of recombinant full length human CDK7/cyclinH/MAT1 assessed as residual activity at 1 uM using peptide as substrate incubated for 40 mins in presence of [gamma-33ATP] by scintillation counting based radiometry assay relative to control; type: protein-complex assay
[4] = molecular target: Serine/threonine-protein kinase Chk1 (Homo sapiens) (UniProt O14757); experiment: Inhibition of recombinant full length human CHK1 assessed as residual activity at 1 uM using KKKVSRSGLYRSP as substrate incubated for 40 mins in presence of [gamma-33ATP] by scintillation counting based radiometry assay relative to control
[5] = system: Macrophage colony-stimulating factor 1 receptor (Homo sapiens), P07333 [Y969C]; experiment: Inhibition of recombinant human FMS Y969C mutant (538 to end residues) assessed as residual activity at 1 uM using EEEEYEEEEEEYYIIEEEEEEYEEEEEEYYEEEEEEKKKK as substrate at 40 mins in presence of [gamma-33ATP] by scintillation counting based radiometry assay relative to control
[6] = molecular target: Homeodomain-interacting protein kinase 4 (Homo sapiens) (UniProt Q8NE63); experiment: Inhibition of human HIPK4 assessed as residual activity at 1 uM using RRRFRPASPLRGPPK as substrate after 40 mins by [gamma-33ATP] radiometric assay relative to control
[7] = molecular target: Mitogen-activated protein kinase 10 (Homo sapiens) (UniProt P53779); experiment: Inhibition of human JNK3 assessed as residual activity at 1 uM using peptide as substrate after 40 mins by [gamma-33ATP] radiometric assay relative to control
Homo sapiens = species on record: Homo sapiens; experiment: Inhibition of human MAPK2 assessed as residual activity at 1 uM relative to control
[8] = molecular target: MAP/microtubule affinity-regulating kinase 4 (Homo sapiens) (UniProt Q96L34); experiment: Inhibition of recombinant full length human MARK4 assessed as residual activity at 1 uM using KKKVSRSGLYRSPSMPENLNRPR as substrate incubated for 40 mins in presence of [gamma-33ATP by scintillation counting based radiometry assay relative to control
[9] = molecular target: Mitogen-activated protein kinase kinase kinase 2 (Homo sapiens) (UniProt Q9Y2U5); experiment: Inhibition of recombinant full length human MEKK2 assessed as residual activity at 1 uM using myelin basic protein as substrate incubated for 40 mins in presence of [gamma-33ATP by scintillation counting based radiometry assay relative to control
[10] = system: Hepatocyte growth factor receptor (Homo sapiens), P08581 [D1228H]; experiment: Inhibition of recombinant human MET A1209G/V1290L/D1246H mutant (974 to end residues) assessed as residual activity at 1 uM using KKKGQEEEYVFIE as substrate incubated for 40 mins in presence of [gamma-33ATP by scintillation counting based radiometry assay relative to control
[11] = molecular target: Mitogen-activated protein kinase kinase kinase 11 (Homo sapiens) (UniProt Q16584); experiment: Inhibition of recombinant human MLK3 assessed as residual activity at 1 uM using by scintillation counting based radiometry assay relative to control
[12] = molecular target: MAP kinase-interacting serine/threonine-protein kinase 2 (Homo sapiens) (UniProt Q9HBH9); experiment: Inhibition of recombinant full-length human Mnk2 assessed as residual activity at 1 uM using myelin basic protein as substrate measured after 40 mins in presence of [gamma33P]ATP by scintillation counting method
[13] = system: Serine/threonine-protein kinase Nek4 (Homo sapiens), P51957 [P225A]; experiment: Inhibition of recombinant full-length human NEK4 P225A mutant assessed as residual activity at 1 uM using myelin basic protein as substrate measured after 40 mins in presence of [gamma33P]ATP by scintillation counting method relative to control
[14] = molecular target: Serine/threonine-protein kinase pim-1 (Homo sapiens) (UniProt P11309); experiment: Inhibition of recombinant full length human Pim1 assessed as residual activity at 1 uM using KKRNRTLTV as substrate measured after 40 mins in presence of [gamma33P]ATP by scintillation counting method relative to control
[15] = molecular target: Protein kinase C alpha type (Homo sapiens) (UniProt P17252); experiment: Inhibition of recombinant human full length PKCalpha assessed as residual activity at 1 uM using histone H1 as substrate measured after 40 mins in presence of [gamma33P]ATP by scintillation counting method relative to control
[16] = molecular target: Protein kinase C delta type (Homo sapiens) (UniProt Q05655); experiment: Inhibition of recombinant human PKCdelta (2 to end residues) assessed as residual activity at 1 uM using ERMRPRKRQGSVRRRV as substrate measured after 40 mins in presence of [gamma33P]ATP by scintillation counting method relative to control
[17] = molecular target: Protein kinase C theta type (Homo sapiens) (UniProt Q04759); experiment: Inhibition of recombinant full length human PKCtheta assessed as residual activity at 1 uM using histone H1 as substrate measured after 40 mins in presence of [gamma33P]ATP by scintillation counting method relative to control
[18] = molecular target: Serine/threonine-protein kinase D3 (Homo sapiens) (UniProt O94806); experiment: Inhibition of recombinant full-length human PKD3 assessed as residual activity at 1 uM using KKLRRTLSVA as substrate measured after 40 mins in presence of [gamma33P]ATP by scintillation counting method relative to control
[19] = molecular target: Ribosomal protein S6 kinase alpha-1 (Homo sapiens) (UniProt Q15418); experiment: Inhibition of recombinant full length human Rsk1 assessed as residual activity at 1 uM using KKKNRTLSVA as substrate measured after 40 mins in presence of [gamma33P]ATP by scintillation counting method relative to control
[20] = molecular target: Serine/threonine-protein kinase SIK2 (Homo sapiens) (UniProt Q9H0K1); experiment: Inhibition of recombinant human SIK2 (1 to 276 residues) assessed as residual activity at 1 uM using KKKVSRSGLYRSPSMPENLNRPR as substrate measured after 40 mins in presence of [gamma33P]ATP by scintillation counting method relative to control
[21] = molecular target: SRSF protein kinase 1 (Homo sapiens) (UniProt Q96SB4); experiment: Inhibition of human SRPK1 (2 to end residues) assessed as residual activity at 1 uM using RSRSRSRSRSRSRSR as substrate measured after 40 mins in presence of [gamma33P]ATP by scintillation counting method relative to control
[22] = molecular target: Phosphatidylinositol 5-phosphate 4-kinase type-2 alpha (Homo sapiens) (UniProt P48426); experiment: Inhibition of recombinant full-length human PIP4K2alpha at 1 uM assessed as residual activity at 1 uM using phosphatidylinositol 5-phosphate as substrate measured after 40 mins by HTRF assay

Sequence of Serine/threonine-protein kinase pim-1 (Homo sapiens) (P11309 whole entry, looked up): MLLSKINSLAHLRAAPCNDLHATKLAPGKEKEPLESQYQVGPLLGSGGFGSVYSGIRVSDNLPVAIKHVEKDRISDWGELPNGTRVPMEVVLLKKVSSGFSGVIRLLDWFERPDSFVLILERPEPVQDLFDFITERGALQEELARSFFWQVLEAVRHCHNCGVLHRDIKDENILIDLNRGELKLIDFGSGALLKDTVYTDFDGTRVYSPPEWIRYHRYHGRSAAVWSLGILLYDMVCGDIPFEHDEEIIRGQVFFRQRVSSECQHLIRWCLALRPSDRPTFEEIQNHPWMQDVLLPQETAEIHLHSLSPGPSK
Sequence of Mitogen-activated protein kinase kinase kinase 2 (Homo sapiens) (Q9Y2U5 whole entry): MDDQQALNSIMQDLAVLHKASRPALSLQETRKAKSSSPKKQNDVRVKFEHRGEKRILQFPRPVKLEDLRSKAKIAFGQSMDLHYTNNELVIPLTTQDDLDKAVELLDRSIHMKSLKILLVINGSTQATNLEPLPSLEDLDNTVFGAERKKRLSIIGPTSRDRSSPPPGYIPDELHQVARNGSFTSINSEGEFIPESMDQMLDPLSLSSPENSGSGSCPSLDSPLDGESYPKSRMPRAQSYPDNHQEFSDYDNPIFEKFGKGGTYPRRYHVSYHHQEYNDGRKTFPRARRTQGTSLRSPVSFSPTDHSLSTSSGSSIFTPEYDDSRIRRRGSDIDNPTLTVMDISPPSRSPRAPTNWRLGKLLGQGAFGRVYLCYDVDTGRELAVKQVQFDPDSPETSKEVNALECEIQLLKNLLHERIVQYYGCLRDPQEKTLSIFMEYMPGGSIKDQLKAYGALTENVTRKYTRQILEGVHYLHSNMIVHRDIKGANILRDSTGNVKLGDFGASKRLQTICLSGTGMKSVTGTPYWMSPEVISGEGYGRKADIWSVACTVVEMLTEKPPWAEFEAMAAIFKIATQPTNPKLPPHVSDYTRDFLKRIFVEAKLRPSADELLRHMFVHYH
Sequence of Macrophage colony-stimulating factor 1 receptor (Homo sapiens), P07333 [Y969C] (P07333 whole entry Y969C): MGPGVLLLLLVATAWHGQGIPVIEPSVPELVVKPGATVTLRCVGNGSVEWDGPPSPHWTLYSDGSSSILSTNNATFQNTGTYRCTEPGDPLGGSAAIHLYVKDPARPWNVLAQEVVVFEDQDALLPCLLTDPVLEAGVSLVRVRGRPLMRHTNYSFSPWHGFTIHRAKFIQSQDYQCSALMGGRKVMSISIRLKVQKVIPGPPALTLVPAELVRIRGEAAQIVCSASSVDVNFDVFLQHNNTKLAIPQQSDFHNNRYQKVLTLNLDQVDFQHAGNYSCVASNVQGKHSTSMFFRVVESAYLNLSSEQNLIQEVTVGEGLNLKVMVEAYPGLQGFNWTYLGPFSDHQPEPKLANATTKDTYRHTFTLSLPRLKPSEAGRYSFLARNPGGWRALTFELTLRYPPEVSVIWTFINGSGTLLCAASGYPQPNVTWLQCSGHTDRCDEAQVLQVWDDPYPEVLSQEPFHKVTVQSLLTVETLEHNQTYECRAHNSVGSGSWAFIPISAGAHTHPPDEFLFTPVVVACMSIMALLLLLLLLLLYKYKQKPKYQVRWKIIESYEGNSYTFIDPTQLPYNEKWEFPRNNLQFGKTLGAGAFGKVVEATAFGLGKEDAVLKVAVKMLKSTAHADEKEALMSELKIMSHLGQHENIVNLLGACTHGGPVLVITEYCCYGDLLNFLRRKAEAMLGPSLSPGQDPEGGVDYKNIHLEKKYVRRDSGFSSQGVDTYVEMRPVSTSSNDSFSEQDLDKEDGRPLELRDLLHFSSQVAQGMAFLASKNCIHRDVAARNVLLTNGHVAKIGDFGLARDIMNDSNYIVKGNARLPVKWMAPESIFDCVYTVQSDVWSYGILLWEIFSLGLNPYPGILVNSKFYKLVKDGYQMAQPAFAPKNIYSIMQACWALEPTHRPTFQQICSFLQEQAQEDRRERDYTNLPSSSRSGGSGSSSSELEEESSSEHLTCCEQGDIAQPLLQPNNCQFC
Sequence of Ribosomal protein S6 kinase alpha-1 (Homo sapiens) (Q15418 whole entry, the tested form may be a part): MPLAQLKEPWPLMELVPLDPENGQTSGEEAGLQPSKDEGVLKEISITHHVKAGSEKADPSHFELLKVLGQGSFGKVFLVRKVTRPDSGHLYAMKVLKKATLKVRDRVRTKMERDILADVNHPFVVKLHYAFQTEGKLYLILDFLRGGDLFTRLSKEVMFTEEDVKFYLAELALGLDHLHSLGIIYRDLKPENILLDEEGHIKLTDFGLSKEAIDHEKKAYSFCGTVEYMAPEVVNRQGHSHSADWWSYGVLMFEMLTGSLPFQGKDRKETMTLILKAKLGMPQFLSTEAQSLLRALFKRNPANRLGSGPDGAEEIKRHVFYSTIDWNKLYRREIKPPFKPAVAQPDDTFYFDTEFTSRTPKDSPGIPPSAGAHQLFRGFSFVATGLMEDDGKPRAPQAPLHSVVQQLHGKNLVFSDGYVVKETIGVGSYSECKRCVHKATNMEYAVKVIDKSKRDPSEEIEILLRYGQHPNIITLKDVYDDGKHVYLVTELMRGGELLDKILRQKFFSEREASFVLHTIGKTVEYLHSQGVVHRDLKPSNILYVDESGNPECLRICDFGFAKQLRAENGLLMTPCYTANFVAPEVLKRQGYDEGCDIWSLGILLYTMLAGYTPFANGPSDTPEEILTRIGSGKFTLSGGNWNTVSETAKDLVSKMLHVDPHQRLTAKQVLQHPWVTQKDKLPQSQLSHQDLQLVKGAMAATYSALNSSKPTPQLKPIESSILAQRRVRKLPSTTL
Sequence of Serine/threonine-protein kinase D3 (Homo sapiens) (O94806 whole entry): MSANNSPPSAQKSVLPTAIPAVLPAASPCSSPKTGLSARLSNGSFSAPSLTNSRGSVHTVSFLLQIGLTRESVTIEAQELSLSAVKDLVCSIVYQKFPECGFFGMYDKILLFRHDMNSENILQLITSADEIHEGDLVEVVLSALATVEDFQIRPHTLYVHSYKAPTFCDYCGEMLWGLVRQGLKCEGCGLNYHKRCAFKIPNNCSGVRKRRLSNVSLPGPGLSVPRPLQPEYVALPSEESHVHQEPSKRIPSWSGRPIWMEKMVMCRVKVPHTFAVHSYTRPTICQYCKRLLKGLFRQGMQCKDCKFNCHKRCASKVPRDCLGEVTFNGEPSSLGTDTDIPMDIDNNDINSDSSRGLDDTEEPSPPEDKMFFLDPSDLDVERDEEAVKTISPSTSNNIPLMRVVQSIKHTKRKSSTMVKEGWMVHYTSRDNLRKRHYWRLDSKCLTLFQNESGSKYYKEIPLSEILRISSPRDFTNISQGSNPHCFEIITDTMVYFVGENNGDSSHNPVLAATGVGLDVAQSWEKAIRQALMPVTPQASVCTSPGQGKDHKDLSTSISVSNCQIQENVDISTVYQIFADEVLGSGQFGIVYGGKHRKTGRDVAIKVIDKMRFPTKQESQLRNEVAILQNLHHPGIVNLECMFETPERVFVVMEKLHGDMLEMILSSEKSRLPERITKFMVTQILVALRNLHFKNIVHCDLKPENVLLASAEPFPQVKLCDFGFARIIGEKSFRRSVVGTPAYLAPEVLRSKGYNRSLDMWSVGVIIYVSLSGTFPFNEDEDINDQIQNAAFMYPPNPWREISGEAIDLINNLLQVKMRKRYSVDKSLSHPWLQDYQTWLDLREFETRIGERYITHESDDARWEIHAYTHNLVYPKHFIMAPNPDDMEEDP
Sequence of MAP kinase-interacting serine/threonine-protein kinase 2 (Homo sapiens) (Q9HBH9 whole entry, looked up): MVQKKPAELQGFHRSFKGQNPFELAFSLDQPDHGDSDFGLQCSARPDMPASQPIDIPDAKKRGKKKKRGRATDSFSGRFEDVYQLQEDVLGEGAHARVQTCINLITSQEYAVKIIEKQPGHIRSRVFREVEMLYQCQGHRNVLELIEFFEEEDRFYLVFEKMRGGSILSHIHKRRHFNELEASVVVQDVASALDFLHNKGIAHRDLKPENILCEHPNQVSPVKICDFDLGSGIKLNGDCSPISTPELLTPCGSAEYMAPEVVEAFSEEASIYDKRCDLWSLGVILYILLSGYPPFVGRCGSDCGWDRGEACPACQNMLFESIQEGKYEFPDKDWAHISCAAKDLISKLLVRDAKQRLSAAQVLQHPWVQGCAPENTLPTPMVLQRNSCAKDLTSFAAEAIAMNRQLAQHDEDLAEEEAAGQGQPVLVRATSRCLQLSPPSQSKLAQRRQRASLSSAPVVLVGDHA
Sequence of Serine/threonine-protein kinase Chk1 (Homo sapiens) (O14757 whole entry): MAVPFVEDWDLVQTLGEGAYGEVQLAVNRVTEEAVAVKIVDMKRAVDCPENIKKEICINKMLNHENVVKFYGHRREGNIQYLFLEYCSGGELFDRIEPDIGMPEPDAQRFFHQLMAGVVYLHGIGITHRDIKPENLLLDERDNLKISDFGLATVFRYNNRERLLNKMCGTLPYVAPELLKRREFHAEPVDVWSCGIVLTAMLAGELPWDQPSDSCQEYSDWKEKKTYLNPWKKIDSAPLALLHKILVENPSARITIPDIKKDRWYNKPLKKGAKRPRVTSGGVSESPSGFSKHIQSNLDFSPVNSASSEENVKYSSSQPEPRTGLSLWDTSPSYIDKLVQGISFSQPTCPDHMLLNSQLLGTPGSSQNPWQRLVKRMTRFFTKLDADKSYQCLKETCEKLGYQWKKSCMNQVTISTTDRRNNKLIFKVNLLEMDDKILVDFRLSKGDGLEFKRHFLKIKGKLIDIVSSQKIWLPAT
Sequence of Calcium/calmodulin-dependent protein kinase type 1 (Homo sapiens) (Q14012 whole entry, looked up): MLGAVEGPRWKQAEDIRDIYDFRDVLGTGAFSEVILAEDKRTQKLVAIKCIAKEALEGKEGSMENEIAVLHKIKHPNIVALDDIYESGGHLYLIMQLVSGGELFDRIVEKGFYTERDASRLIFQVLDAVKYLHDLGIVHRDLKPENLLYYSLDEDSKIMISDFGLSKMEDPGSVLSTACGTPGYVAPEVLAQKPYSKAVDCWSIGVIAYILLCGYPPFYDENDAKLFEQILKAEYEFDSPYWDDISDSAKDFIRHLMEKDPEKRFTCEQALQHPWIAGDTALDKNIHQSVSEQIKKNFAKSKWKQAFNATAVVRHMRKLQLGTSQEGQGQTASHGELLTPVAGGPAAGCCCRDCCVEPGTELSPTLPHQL

Structure (SMILES) | Activity [1] [%] | Activity [2] [%] | Activity [3] [%] | Activity [4] [%] | Activity [5] [%] | Activity [6] [%] | Activity [7] [%] | Activity (Homo sapiens) [%] | Activity [8] [%] | Activity [9] [%] | Activity [10] [%] | Activity [11] [%] | Activity [12] [%] | Activity [13] [%] | Activity [14] [%] | Activity [15] [%] | Activity [16] [%] | Activity [17] [%] | Activity [18] [%] | Activity [19] [%] | also measured
C=CCOC(=O)c1cc(-c2ccc(/C=C3/NC(=S)NC3=O)o2)ccc1Cl | 106 | 90 | 94 | 103 | 95 | 97 | 100 | 99 | 113 | 98 | 110 | 89 | 84 | 92 | 21 | 96 | 96 | 96 | 94 | 90 | Activity [20]: 104%; Activity [21]: 104%; Activity [22]: 98%
N=C1NC(=O)/C(=C\c2ccc(-c3cccc([N+](=O)[O-])c3)o2)S1 | 103 | 103 | 92 | 102 | 106 | 92 | 112 | 103 | 92 | 93 | 92 | 96 | 77 | 98 | 9 | 97 | 103 | 101 | 89 | 105 | Activity [20]: 99%; Activity [21]: 94%; Activity [22]: 99%

From ChEMBL document CHEMBL4334438, “Discovery of novel glycogen synthase kinase-3α inhibitors: Structure-based virtual screening, preliminary SAR and biological evaluation for treatment of acute myeloid leukemia” (Eur J Med Chem, 2019)
